# According to the supplement of paper PMC9663587:
# What was measured:
# [1] = compound: CC(=O)c1c(C)c2cnc(Nc3ccc(N4CCNCC4)cn3)nc2n(C2CCCC2)c1=O; assay: increase in dead-cell fraction, 72 h; higher = more death;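 further: breast cancer cell lines in 384-well plates, stained with Hoechst plus LIVE/DEAD far red dye and imaged, cells above an LDR intensity threshold counted dead, Hoechst-negative corpses included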
# [2] = compound: CCN1CCN(Cc2ccc(Nc3ncc(F)c(-c4cc(F)c5nc(C)n(C(C)C)c5c4)n3)nc2)CC1; assay: as above
# LEE011/Ribociclib [3] = compound: T1, CN(C)C(=O)c1cc2cnc(Nc3ccc(N4CCNCC4)cn3)nc2n1C1CCCC1 [LEE011/Ribociclib]; assay: as above
# Flavopiridol [4] = compound: T2, CN1CC[C@H](c2c(O)cc(O)c3c(=O)cc(-c4ccccc4Cl)oc23)[C@H](O)C1 [Flavopiridol]; assay: as above
# BSJ-03-123 = compound: CC(=O)c1c(C)c2cnc(Nc3ccc(N4CCN(CCOCCOCCOCCNC(=O)COc5cccc6c5C(=O)N(C5CCC(=O)NC5=O)C6=O)CC4)cn3)nc2n(C2CCCC2)c1=O [BSJ-03-123]; assay: GR value, 72 h; higher = faster growth (1 = untreated, <0 = killing);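 further: breast cancer and non-malignant breast epithelial lines, nine half-log doses, viable cells counted by Hoechst and LIVE/DEAD dye imaging versus time-zero plates and DMSO controls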
# [5] = compound: CC(=O)c1c(C)c2cnc(Nc3ccc(N4CCNCC4)cn3)nc2n(C2CCCC2)c1=O; assay: as above
# [6] = compound: CCN1CCN(Cc2ccc(Nc3ncc(F)c(-c4cc(F)c5nc(C)n(C(C)C)c5c4)n3)nc2)CC1; assay: as above
# Neratinib/HKI272 = compound: CCOc1cc2ncc(C#N)c(Nc3ccc(OCc4ccccn4)c(Cl)c3)c2cc1NC(=O)/C=C/CN(C)C [Neratinib/HKI272]; assay: as above
# [7] = compound: CCc1cnn2c(NCc3ccc[n+]([O-])c3)cc(N3CCCC[C@H]3CCO)nc12; assay: as above
# LEE011/Ribociclib [8] = compound: T1, LEE011/Ribociclib; assay: as above
# THZ1 = compound: CN(C)C/C=C/C(=O)Nc1ccc(C(=O)Nc2cccc(Nc3ncc(Cl)c(-c4c[nH]c5ccccc45)n3)c2)cc1 [THZ1]; assay: as above
# Flavopiridol [9] = compound: T2, Flavopiridol; assay: as above
cell line,measurement,setting,value
SUM44PE,increase in dead-cell fraction,[1]; 0.0003162 µM,-0.0301
same,increase in dead-cell fraction,[1]; 0.001 µM,0.0185
same,increase in dead-cell fraction,[1]; 0.003162 µM,0.0057
same,increase in dead-cell fraction,[1]; 0.01 µM,-0.0159
same,increase in dead-cell fraction,[1]; 0.03162 µM,0.0328
same,increase in dead-cell fraction,[1]; 0.1 µM,0.0351
same,increase in dead-cell fraction,[1]; 0.3162 µM,0.0647
same,increase in dead-cell fraction,[1]; 1 µM,-0.0062
same,increase in dead-cell fraction,[1]; 3.162 µM,0.0016
same,increase in dead-cell fraction,[2]; 0.001 µM,0.0036
same,increase in dead-cell fraction,[2]; 0.003162 µM,-0.0095
same,increase in dead-cell fraction,[2]; 0.01 µM,0.0221
same,increase in dead-cell fraction,[2]; 0.03162 µM,0.0221
same,increase in dead-cell fraction,[2]; 0.1 µM,-0.017
same,increase in dead-cell fraction,[2]; 0.3162 µM,0.0843
same,increase in dead-cell fraction,[2]; 1 µM,0.0751
same,increase in dead-cell fraction,[2]; 3.162 µM,0.0328
same,increase in dead-cell fraction,[2]; 10 µM,0.697
same,increase in dead-cell fraction,LEE011/Ribociclib [3]; 0.001 µM,0.0007
same,increase in dead-cell fraction,LEE011/Ribociclib [3]; 0.003162 µM,-0.0447
same,increase in dead-cell fraction,LEE011/Ribociclib [3]; 0.01 µM,0.0327
same,increase in dead-cell fraction,LEE011/Ribociclib [3]; 0.03162 µM,-0.0402
same,increase in dead-cell fraction,LEE011/Ribociclib [3]; 0.1 µM,0.0001
same,increase in dead-cell fraction,LEE011/Ribociclib [3]; 0.3162 µM,-0.0342
same,increase in dead-cell fraction,LEE011/Ribociclib [3]; 1 µM,0.0417
same,increase in dead-cell fraction,LEE011/Ribociclib [3]; 3.162 µM,-0.0186
same,increase in dead-cell fraction,LEE011/Ribociclib [3]; 10 µM,-0.0286
same,increase in dead-cell fraction,Flavopiridol [4]; 0.0001 µM,-0.0156
same,increase in dead-cell fraction,Flavopiridol [4]; 0.0003162 µM,-0.0093
same,increase in dead-cell fraction,Flavopiridol [4]; 0.001 µM,-0.0478
same,increase in dead-cell fraction,Flavopiridol [4]; 0.003162 µM,-0.0522
same,increase in dead-cell fraction,Flavopiridol [4]; 0.01 µM,0.0491
same,increase in dead-cell fraction,Flavopiridol [4]; 0.03162 µM,0.0151
same,increase in dead-cell fraction,Flavopiridol [4]; 0.1 µM,0.263
same,increase in dead-cell fraction,Flavopiridol [4]; 0.3162 µM,0.457
same,GR value,BSJ-03-123; 0.001 µM,0.917 GR
same,GR value,BSJ-03-123; 0.003162 µM,0.854 GR
same,GR value,BSJ-03-123; 0.01 µM,0.911 GR
same,GR value,BSJ-03-123; 0.03162 µM,0.8 GR
same,GR value,BSJ-03-123; 0.1 µM,0.722 GR
same,GR value,BSJ-03-123; 0.3162 µM,0.669 GR
same,GR value,BSJ-03-123; 1 µM,0.45 GR
same,GR value,BSJ-03-123; 3.162 µM,0.337 GR
same,GR value,[5]; 0.0003162 µM,1.09 GR
same,GR value,[5]; 0.001 µM,0.993 GR
same,GR value,[5]; 0.003162 µM,1.03 GR
same,GR value,[5]; 0.01 µM,1.04 GR
same,GR value,[5]; 0.03162 µM,0.784 GR
same,GR value,[5]; 0.1 µM,0.588 GR
same,GR value,[5]; 0.3162 µM,0.461 GR
same,GR value,[5]; 1 µM,0.514 GR
same,GR value,[5]; 3.162 µM,0.397 GR
same,GR value,[6]; 0.001 µM,0.905 GR
same,GR value,[6]; 0.003162 µM,0.922 GR
same,GR value,[6]; 0.01 µM,0.666 GR
same,GR value,[6]; 0.03162 µM,0.413 GR
same,GR value,[6]; 0.1 µM,0.251 GR
same,GR value,[6]; 0.3162 µM,0.237 GR
same,GR value,[6]; 1 µM,0.201 GR
same,GR value,[6]; 3.162 µM,0.134 GR
same,GR value,[6]; 10 µM,-0.763 GR
same,GR value,Neratinib/HKI272; 0.0003162 µM,0.966 GR
same,GR value,Neratinib/HKI272; 0.001 µM,0.921 GR
same,GR value,Neratinib/HKI272; 0.003162 µM,0.764 GR
same,GR value,Neratinib/HKI272; 0.01 µM,0.465 GR
same,GR value,Neratinib/HKI272; 0.03162 µM,0.417 GR
same,GR value,Neratinib/HKI272; 0.1 µM,0.312 GR
same,GR value,Neratinib/HKI272; 0.3162 µM,0.209 GR
same,GR value,Neratinib/HKI272; 1 µM,0.0292 GR
same,GR value,Neratinib/HKI272; 3.162 µM,-0.218 GR
same,GR value,[7]; 0.0001 µM,0.983 GR
same,GR value,[7]; 0.0003162 µM,1.03 GR
same,GR value,[7]; 0.001 µM,1.08 GR
same,GR value,[7]; 0.003162 µM,0.918 GR
same,GR value,[7]; 0.01 µM,0.257 GR
same,GR value,[7]; 0.03162 µM,-0.925 GR
same,GR value,LEE011/Ribociclib [8]; 0.001 µM,0.854 GR
same,GR value,LEE011/Ribociclib [8]; 0.003162 µM,0.783 GR
same,GR value,LEE011/Ribociclib [8]; 0.01 µM,0.676 GR
same,GR value,LEE011/Ribociclib [8]; 0.03162 µM,0.637 GR
same,GR value,LEE011/Ribociclib [8]; 0.1 µM,0.663 GR
same,GR value,LEE011/Ribociclib [8]; 0.3162 µM,0.636 GR
same,GR value,LEE011/Ribociclib [8]; 1 µM,0.55 GR
same,GR value,LEE011/Ribociclib [8]; 3.162 µM,0.545 GR
same,GR value,LEE011/Ribociclib [8]; 10 µM,0.378 GR
same,GR value,THZ1; 0.0001 µM,1.02 GR
same,GR value,THZ1; 0.0003162 µM,0.977 GR
same,GR value,THZ1; 0.001 µM,0.784 GR
same,GR value,THZ1; 0.003162 µM,0.888 GR
same,GR value,THZ1; 0.01 µM,-0.229 GR
same,GR value,THZ1; 1 µM,-0.0313 GR
same,GR value,Flavopiridol [9]; 0.0001 µM,0.968 GR
same,GR value,Flavopiridol [9]; 0.0003162 µM,0.969 GR
same,GR value,Flavopiridol [9]; 0.001 µM,0.862 GR
same,GR value,Flavopiridol [9]; 0.003162 µM,0.951 GR
same,GR value,Flavopiridol [9]; 0.01 µM,0.707 GR
same,GR value,Flavopiridol [9]; 0.03162 µM,0.489 GR
same,GR value,Flavopiridol [9]; 0.1 µM,-0.0333 GR
same,GR value,Flavopiridol [9]; 0.3162 µM,-0.573 GR
